From US11485720B2, “Anti-infective agents” (University of Dundee, priority 2016, dated 2022)
Where “and” joins values, the source holds several entries; their conditions need not be identical. Identical values can stand only once. Counter-ions that a name gives are not always drawn. Blank lines part the entries; values can stand above or below the molecule they belong to.

What was measured:
[1] = molecular target: T1, Plasmodium falciparum lysyl t-RNA synthetase (Pf-KRS1) (Plasmodium falciparum, UniProt Q8IDJ8); assay: Pf-KRS1 inhibition biochemical assay (Kinase-Glo, ATP depletion); conditions: read-out: Pf-KRS pIC50 (converted)
T1 construct: Pf KRS1-; made in house; host or cells: E. coli BL21 (DE3)
T1 sequence (Q8IDJ8 entry or part of it, looked up, natural form): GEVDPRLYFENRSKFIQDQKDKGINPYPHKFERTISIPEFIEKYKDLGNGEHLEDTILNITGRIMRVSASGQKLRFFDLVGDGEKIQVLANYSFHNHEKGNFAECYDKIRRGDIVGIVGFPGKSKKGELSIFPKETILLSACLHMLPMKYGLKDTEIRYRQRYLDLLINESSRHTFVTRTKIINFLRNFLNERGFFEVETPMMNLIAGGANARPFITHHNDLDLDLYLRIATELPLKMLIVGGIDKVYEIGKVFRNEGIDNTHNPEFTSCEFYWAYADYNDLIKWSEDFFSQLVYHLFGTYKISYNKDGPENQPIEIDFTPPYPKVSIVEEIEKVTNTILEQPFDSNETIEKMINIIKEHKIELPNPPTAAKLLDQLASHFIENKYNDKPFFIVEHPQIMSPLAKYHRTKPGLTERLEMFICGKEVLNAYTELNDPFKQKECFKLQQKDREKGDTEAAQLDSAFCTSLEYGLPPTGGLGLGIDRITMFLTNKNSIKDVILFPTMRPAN
Excerpt: Plasmodium falciparum Lysine tRNA Synthetase (KRS1) Biochemical Assay Methodology.
Lysine tRNA Synthetase (KRS1) is an enzyme which catalyses the esterification of L-Lysine to the appropriate transfer ribonucleic acid (tRNA), to form an aminoacyl-tRNA. Once the tRNA is charged, a ribosome transfers the amino acid from the tRNA onto a growing peptide, according to the genetic code.
The substrates of this reaction are L-lysine, and adenosine triphosphate (ATP), the overall reaction is: amino acid+tRNA+ATP→aminoacyl-tRNA+AMP+PPi
In this overall reaction AMP is adenosine monophosphate and PP; is inorganic pyrophosphate. The reaction progression in a biochemical assay can be tracked by the depletion of one of the substrates, in the case of this invention, ATP. This was done using the proprietary assay kit, Kinase Glo® Assay which is a luminescent kinase assay platform suitable for monitoring kinase activities using up to 10 μm ATP which is commercially available from the Promega Corporation of Madison, Wis., USA. The Kinase-Glo® Assay was performed in a single well of a multiwell plate by adding a volume of Kinase-Glo® Reagent equal to the volume of a completed kinase reaction and measuring luminescence. The resulting luminescent signal is correlated with the amount of ATP present and is inversely correlated with the amount of kinase activity. As such by use of this assay methodology a reduction of the luminescent signal is relative to the reduction in ATP as the reaction progresses. A compound which inhibits the action of KRS will show no drop in the luminescent signal from assay controls.
Assays were performed using both Plasmodium falciparum and human KRS to assess any selectivity of various test compounds.
Test compounds were solubilized in DMSO at a top concentration of 10 mM and serially diluted 1 in 3 to achieve a range of final assay concentrations of 50 μM to 2.5 nM in 10 μl reaction volume.
KRS was diluted to a working concentration of 75 nM in assay buffer (25 mM HEPES, 25 mM KOH, 10 mM MgCl2.6H2O, 50 mM KCl), and the following ‘Master Mix’ prepared in assay buffer: 0.1 mg/ml BSA, 250 μM DTT, 200 μM Spermine, 0.05% NP-40, ATP 3 μM for Pf KRS1 (4 μM for Hs KRS1), 0.4 mg/ml tRNA from Yeast, 60 μM L-Lysine, 0.5 U/ml Pyrophosphatase.
Plates were incubated at room temperature for 5 h for Pf KRS (2.5 hrs for HsKRS), then the assay stopped by the addition of 10 μl of The Kinase-Glo® Reagent Assay was performed in a single well of a multiwell plate by adding a volume of Kinase-Glo® Reagent which is commercially available from the Promega Corporation of Madison, Wis., USA. The plates were incubated in the dark for a further 15 mins before being read for luminescence on a BMG PHERAstar® FSX plate reader which is a multi-mode reader for use in high-throughput screening available from BMG Labtech if Cary, N.C., USA. Data were analysed by calculating the percentage inhibition compared to the maximum and minimum assay controls. Concentration effect curves were fitted using nonlinear regression within ActivityBase and IC50 values were determined using standard protocols.

[2] = tested on: Plasmodium falciparum strain 3D7; assay: Plasmodium falciparum 3D7 in vitro growth inhibition (SYBRgreen I); format: cell-based; conditions: Plasmodium falciparum, 3D7; read-out: pEC50 for Pf 3D7 (converted)
Description: Parasite Cultures and Cytotoxicity Assay Methodology for Plasmodium falciparum. […] Growth inhibition of the Plasmodium falciparum cultures was quantified in a 10-point dose response curve with a 1 in 3 dilution series from a top assay concentration of 50 μM. This 384 well plate based fluorescence assay utilises the binding of SYBRgreen I (Thermo Fisher Scientific/Invitrogen cat. no. S7585) to double stranded DNA, which greatly increases the fluorescent signal at 528 nm after excitation at 485 nm. Mefloquine was used as a drug control to monitor the quality of the assay (Z′=0.6 to 0.8, where Z′ is a measure of the discrimination between the positive and negative controls on a screen plate). Dose-response curves were determined from a minimum of 3 independent experiments. Compound bioactivity was expressed as EC50, the effective concentration of compound causing 50% parasite death.

Cryptosporidium parvum = assay: In vitro Crytosporidium inhibition assay; format: cell-based; conditions: Cryptosporidium parvum; read-out: Cryptosporidium parvum pEC50 (converted)
Excerpt: Assay Method for Measurement of In Vitro Inhibition of Crytosporidium.
These experiments were run in accordance with the method of Besssoff et. al. Antimicrob. Agents Chemother. 2013, 57:1804-1814. Results from these experiments are provided in the Experimental Results hereinafter.

Hep G2 = Hep G2 in-vitro cytotoxicity assay; format: cell-based; conditions: Homo sapiens, HepG2, read-out: Hs HEPG2 pEC50 (converted)
Excerpt: In-vitro cytotoxicity studies can be carried out using Hep G2 (Human hepatocyte carcinoma, HPACC cat. no. 85011430) used as indicators for general mammalian cell toxicity. Hep G2 in-vitro cytotoxicity can be assessed using the assay procedure as described in “Use of a human-derived liver cell line for the detection of cytoprotective, antigenotoxic and cogenotoxic agents”, Volker Mersch-Sundermann, Siegfried Knasmüller, Xin-jiang Wu, Firouz Darroudi, Fekadu Kassie. J. Tox 198 (2004) 329-340) the contents of which are incorporated herein by reference.

Structure (SMILES): O=C(NCC1(O)CCCC1)c1cc(=O)c2cc(F)cc(O)c2o1 [Example 76F, 6-fluoro-8-hydroxy-N-((1-hydroxycyclopentyl)methyl)-4-oxo-4H-chromene-2-carboxamide]
- IC50 [1]: 0.0794 µM
- EC50 [2]: 0.501 µM

Structure (SMILES): O=C(NCC1CC2CCC1C2)c1cc(=O)c2cc(F)ccc2o1 (stereo not drawn) [Example 36, 6-fluoro-N-(norbornan-2-ylmethyl)-4-oxo-chromene-2-carboxamide]
- IC50 [1]: 0.126 µM
- EC50 [2]: 0.794 µM
- EC50 (Cryptosporidium parvum): 1.26 µM

Structure (SMILES): O=C(NCCC1CCCC1)c1cc(=O)c2ccccc2o1 [Example 26, N-(2-cyclopentylethyl)-4-oxo-chromene-2-carboxamide]
- IC50 [1]: 0.501 µM
- EC50 [2]: 6.31 µM
- EC50 (Cryptosporidium parvum): 10 µM

Structure (SMILES): O=C(NCC1(O)CCC(F)(F)CC1)c1cc(=O)c2ccc(F)c(O)c2o1 [Example 80, N-((4,4-difluoro-1-hydroxycyclohexyl)methyl)-7-fluoro-8-hydroxy-4-oxo-4H-chromene-2-carboxamide]
- IC50 [1]: 0.316 µM
- EC50 (Hep G2): 50.1 µM

Structure (SMILES): O=C(NCC1CCCCO1)c1cc(=O)c2cc(F)ccc2o1 (stereo not drawn) [Example 32, 6-fluoro-4-oxo-N-(tetrahydropyran-2-ylmethyl)chromene-2-carboxamide]
- IC50 [1]: 0.398 µM and 0.794 µM
- EC50 [2]: 1.58 µM

- EC50 [2]: 0.631 µM
Structure (SMILES): Nc1cc(F)cc2c(=O)cc(C(=O)NC[C@H]3CC[C@H](O)CC3)oc12 [Example 98, 8-amino-6-fluoro-N-[(4-hydroxycyclohexyl)methyl]-4-oxo-chromene-2-carboxamide]
- EC50 (Hep G2): 50.1 µM

Structure (SMILES): O=C(NCC1CCCCC1)c1cc(=O)c2cccc(F)c2o1 [Example 8, N-(cyclohexylmethyl)-8-fluoro-4-oxo-chromene-2-carboxamide]
- EC50 (Hep G2): 50.1 µM

Structure (SMILES): C[C@H](NC(=O)c1cc(=O)c2cc(F)ccc2o1)C1CCCCC1 [Example 49A, (S)—N-(1-cyclohexylethyl)-6-fluoro-4-oxo-4H-chromene-2-carboxamide]
- IC50 [1]: 0.126 µM
- EC50 [2]: 0.398 µM
- EC50 (Cryptosporidium parvum): 0.158 µM

Structure (SMILES): CS(=O)(=O)Nc1cccc2c(=O)cc(C(=O)NCC3(O)CCCCC3)oc12 [Example 84A, N-[(1-hydroxycyclohexyl)methyl]-8-(methylsulfonamido)-4-oxo-4H-chromene-2-carboxamide]
- EC50 (Hep G2): 50.1 µM

Structure (SMILES): O=C(NCC1(O)CCC(F)(F)CC1)c1cc(=O)c2cc(O)ccc2o1 [Example 57, N-[(4,4-difluoro-1-hydroxy-cyclohexyl)methyl]-6-hydroxy-4-oxo-chromene-2-carboxamide]
- IC50 [1]: 0.126 µM
- EC50 [2]: 0.158 µM
- EC50 (Cryptosporidium parvum): 5.01 µM

- EC50 [2]: 0.126 µM
Structure (SMILES): COC(=O)c1cccc2c(=O)cc(C(=O)NCC3CCCCC3)oc12 [Example 87, Methyl 2-((cyclohexylmethyl)carbamoyl)-4-oxo-4H-chromene-8-carboxylate]
- EC50 (Hep G2): 25.1 µM

Structure (SMILES): CCOC(=O)CC1(CNC(=O)c2cc(=O)c3cc(F)ccc3o2)CCCCC1 [Example 57K, Ethyl 2-(1-((6-fluoro-4-oxo-4H-chromene-2-carboxamido)methyl)cyclohexyl)acetate]
- IC50 [1]: 0.316 µM

Structure (SMILES): NC(=O)c1ccc2oc(C(=O)NCC3CCCCC3)cc(=O)c2c1 [Example 43, N2-(cyclohexylmethyl)-4-oxo-chromene-2,6-dicarboxamide]
- IC50 [1]: 0.398 µM
- EC50 [2]: 3.16 µM
- EC50 (Cryptosporidium parvum): 5.01 µM

- EC50 [2]: 0.0398 µM
Structure (SMILES): Nc1cc(F)cc2c(=O)cc(C(=O)NCC3(F)CCCCC3)oc12 [Example 97, 8-amino-6-fluoro-N-[(1-fluorocyclohexyl)methyl]-4-oxo-4H-chromene-2-carboxamide]
- EC50 (Hep G2): 20 µM

Structure (SMILES): O=C(NCC1CCCCC1)c1cc(=O)c2ccc(Cl)cc2o1 [Example 9, 7-chloro-N-(cyclohexylmethyl)-4-oxo-chromene-2-carboxamide]
- IC50 [1]: 0.2 µM
- EC50 [2]: 1.58 µM
- EC50 (Cryptosporidium parvum): 3.55 µM

Structure (SMILES): CCc1ccc2oc(C(=O)NCC3(O)CCCCC3)cc(=O)c2c1 [Example 45, 6-ethyl-N-[(1-hydroxycyclohexyl)methyl]-4-oxo-chromene-2-carboxamide]
- EC50 (Hep G2): 50.1 µM

Structure (SMILES): O=C(NC[C@@H]1CCCC[C@H]1O)c1cc(=O)c2cc(F)ccc2o1 [Example 57E, 6-Fluoro-N-(((1S,2R)-2-hydroxycyclohexyl)methyl)-4-oxo-4H-chromene-2-carboxamide]
- EC50 (Hep G2): 50.1 µM

Structure (SMILES): O=C(NCC1CCCCC1)c1cc(=O)c2cccc(CO)c2o1 [Example 82, N-(cyclohexylmethyl)-8-(hydroxymethyl)-4-oxo-chromene-2-carboxamide]
- IC50 [1]: 0.251 µM
- EC50 [2]: 0.2 µM
- EC50 (Hep G2): 50.1 µM

- EC50 [2]: 0.0126 µM
Structure (SMILES): Nc1cc(F)cc2c(=O)cc(C(=O)NCC3(O)CCCCC3)oc12 [Example 96, 8-amino-6-fluoro-N-[(1-hydroxycyclohexyl)methyl]-4-oxo-4H-chromene-2-carboxamide]

- EC50 [2]: 0.0794 µM
Structure (SMILES): Nc1c(F)ccc2c(=O)cc(C(=O)NCC3(O)CCC(F)(F)CC3)oc12 [Example 92, 8-Amino-N-[(4,4-difluoro-1-hydroxy-cyclohexyl)methyl]-7-fluoro-4-oxo-chromene-2-carboxamide]

- EC50 (Cryptosporidium parvum): 7.94 µM
Structure (SMILES): O=C(NCC1CCCCC1)c1cc(=O)c2cccc(C(=O)O)c2o1 [Example 88, 2-((Cyclohexylmethyl)carbamoyl)-4-oxo-4H-chromene-8-carboxylic acid]

Structure (SMILES): CS(=O)(=O)Nc1cc(F)cc2c(=O)cc(C(=O)NCC3CCCCC3)oc12 [Example 100, N-(cyclohexylmethyl)-6-fluoro-8-(methanesulfonamido)-4-oxo-chromene-2-carboxamide]
- IC50 [1]: 0.158 µM
- EC50 [2]: 0.2 µM
- EC50 (Hep G2): 50.1 µM

Structure (SMILES): O=C(NCC1(CCO)CCCCC1)c1cc(=O)c2cc(F)ccc2o1 [Example 40A, 6-Fluoro-N-((1-(2-hydroxyethyl)cyclohexyl)methyl)-4-oxo-4H-chromene-2-carboxamide]
- IC50 [1]: 0.2 µM
- EC50 [2]: 0.2 µM
- EC50 (Hep G2): 50.1 µM

Structure (SMILES): Cc1c(C(=O)NCC2CCCCC2)oc2ccccc2c1=O [Example 90, N-(cyclohexylmethyl)-3-methyl-4-oxo-4H-chromene-2-carboxamide]
- IC50 [1]: 1.26 µM
- EC50 [2]: 5.01 µM

Structure (SMILES): NC(=O)c1cccc2c(=O)cc(C(=O)NCC3CCCCC3)oc12 [Example 89, N2-(cyclohexylmethyl)-4-oxo-4H-chromene-2,8-dicarboxamide]
- IC50 [1]: 0.501 µM
- EC50 (Hep G2): 50.1 µM

Structure (SMILES): COc1cccc2c(=O)cc(C(=O)NCC3CCCCC3)oc12 [Example 66, N-(cyclohexylmethyl)-8-methoxy-4-oxo-4H-chromene-2-carboxamide]
- IC50 [1]: 0.501 µM
- EC50 [2]: 2.51 µM

Structure (SMILES): O=C(NCC1CCCCC1)c1cc(=O)c2cccc(OCCN3CCNCC3)c2o1 [Example 62, N-(cyclohexylmethyl)-4-oxo-8-(2-piperazin-1-ylethoxy)chromene-2-carboxamide dihydrochloride]
- EC50 (Hep G2): 50.1 µM
